US7220732B2, “Compounds useful as photodynamic therapeutic agents” (priority 2002, dated 2007)
Like-named read-outs stand apart in the source and are kept apart here.

Assays:
[1] = test system: MRC5 cells; assay: Light/dark cytotoxicity study (MTT) in MRC5 cells; assay type: cell-based
Method: MRC5 and HeLa cell cultures were maintained in MEM (minimum essential medium) containing 10% (v/v) foetal calf serum (FCS), 1% (v/v) non-essential amino acids, 2 μg/ml Fungizone (Trade Mark) (amphotericin B), 50 μg/ml penicillin, 50 μg/ml streptomycin, 20 mM HEPES and 1% (v/v) L-Glutamine. Cells were passaged at least twice before use in the cytotoxicity assays.
Stock haematoporphyrin water-dimethyl sulphoxide (DMSO) (100:1 (v/v)) solutions were diluted with MEM containing 10% FCS. Cells were seeded at 5,000 cells/well in 96-well plates and incubated for 24 hr at 37° C. The 24 hour incubation period was chosen having regard to the slower uptake of haernatoporphyrin in the absence of Cremophor, when compared to the compounds of the present invention in the presence of Cremophor (see below). Cells were then incubated with haematoporphyrin in the dark for 24 hr at 37° C. The haematoporphyrin laden culture medium was then removed by filtration, the cells were washed with PBS and fresh culture medium was added to each well. A 500 W light source, passed through a red glass and water filter barrier, (to ensure cells are irradiated with light of wavelength greater than 570 nm) was used to irradiate the plates for both 15 and 30 min. Following irradiation, the cells were incubated for a further 48 hr at 37° C. before being assessed for cell survival.
Stock 2a or 2b water-Cremophor EL (Trade Mark—CAS 61791-12-6) (1:250 (v/v)) solutions were diluted with MEM containing 10% FCS. Cells were seeded at 5,000 cells/well in 96-well plates and incubated for 24 hr at 37° C. Cells were then incubated with 2a or 2b in the dark for 3 hr at 37° C. The 3 hour incubation period was chosen to reflect the faster cellular uptake of 2a or 2b in the presence of Cremophor, when compared to the cellular uptake of haematoporphyrins in the absence of Cremophor. The 2a or 2b laden culture medium was then removed by filtration, the cells were washed with PBS and fresh culture medium was added to each well. The plates were then irradiated using a 500 W light source passed through a red glass and water filter barrier, (thereby ensuring cells are irradiated with light of wavelength greater than 570 nm) for both 15 and 30 min.
Following irradiation, the cells were incubated for a further 48 hr at 37° C. before being assessed for cell survival. The dark toxicity of compounds of the present invention was also assessed in each experiment.
Cell viability was estimated using the standard MTT (microtiter tetrazolium) assay. This assay measures mitochondrial dehydrogenase activity and is based on the reduction of a soluble yellow tetrazolium salt to a blue, insoluble MTT formazan product by this enzyme. The subsequent colour change produced by viable cells was quantified using a plate reader (VICTOR^2 1420 multilabel HTS counter, Wallac). As mentioned above under the headings “Cytotoxicity”, the cells are incubated at 37° C. for 48 hours, following which the MTT solution was added to the cells at a final concentration of 0.5 mg/ml and incubated for 3 hr at 37° C. The MTT solution was then removed by filtration and 100 μl DMSO was added to each well in order to lyse the cells and release the formazan dye. The plates were read 1 hr later at 540 nm.
Prism (Trade Mark) […] was used to graph the data obtained from the MTT assays and the uptake/efflux experiments. This programme allows non-linear regression analysis and the generation of sigmoidal dose response curves. Prism (Trade Mark) also automatically calculates EC50 values.
Light toxicity assays were also carried out as described above under “Assay methods” in HeLa and MRC5 cells for haematoporphyrin (FIGS. 9 and 10), 2a (FIGS. 11 and 12) and 2b (FIGS. 13 and 14).

[2] = Fluorescence emission and fluorescence quantum yield; assay type: physicochemical
Text: The absorption bands of each photosensitiser are relatively insensitive to solvent changes with solutions in water/Cremophor resulting in a further bathochromic shift of ˜10 nm (Table 1). Excitation of chloroform solutions of the 2a and 4a at 635 nm gave a fluorescence band at 672 and 673 nm respectively (FIG. 2, Table 2). […] The reduction in fluorescence quantum yield in the series would imply more efficient population of the triplet excited state which would benefit singlet oxygen production. The ability of 2 and 4 to produce singlet oxygen would be a prerequisite to them being potential PDT agents.

[3] = test system: HeLa cells; assay: Fluorescence microscopy efflux study in HeLa cells; assay type: cell-based; conditions: after 3 hrs incubation with 10^−5 M
Method: Cells were seeded at a density of 30,000 cells/well in chamber slides and allowed to adhere for 24 hr. A compound of the present invention (10^−5 M) was then added to each chamber and incubated at 37° C. in the dark for 3 hrs. The same procedure was used as for the uptake studies, but for the efflux studies, the cells were treated with fixative solution at specified times after removal of the drug, for example, 5 min, 15 min, 30 min, 1 hr, 2 hr, 3 hr, 6 hr and 24 hr. The slides were then viewed using an Axio Zeiss fluorescent microscope. The cells were examined at the different time points using two different filters. The rhodamine filter was used to visualise the compound of the present invention. […]
LabWorks (Bioimaging Systems) was used to calculate the average fluorescence intensity per cell for each of the different time points used in the uptake and efflux studies for the compounds of the present invention. […] The DAPI filter was used to accurately count the number of cells in each field of view and the rhodamine filter was used to quantify the fluorescence of the compounds of the present invention.
Using the assay method set out above under the heading “Fluorescence Microscopy”, the efflux of 2a was examined from Hela cells and the data are illustrated in FIG. 7. […]

λ em (fluorescence band) ([2]; CHCl3, room temperature, excitation at 635 nm): 672 nm
λ em (fluorescence band) ([2]; Water/Cremophor (100:1), room temperature): 683 nm
Φf (fluorescence quantum yield) ([2]; relative to magnesium tetra-tert-butylphthalocyanine in CHCl3, room temperature): 0.34
SMILES: F[B-]1(F)n2c(-c3ccccc3)cc(-c3ccccc3)c2N=C2C(c3ccccc3)=CC(c3ccccc3)=[N+]21 [Compound 2a]
EC50 ([1]; MRC5, 0 J/cm^2 light (no light), read-out: EC50 (dark toxicity)): 3.5 µM
EC50 ([1]; MRC5, 8 J/cm^2 light (15 mins from a 500 W light source), read-out: EC50): 2 µM
EC50 ([1]; MRC5, 16 J/cm^2 light (30 mins from a 500 W light source), read-out: EC50): 0.46 µM
time to complete efflux [3]: 1000 min
